Measurements taken from patent publication US20200038513A1, “MODULATORS OF FAK PROTEOLYSIS AND ASSOCIATED METHODS OF USE” (ARVINAS OPERATIONS, INC., priority 2018, published 2020).

Tested on: MDA-MB-231 cells
Test: RPPA (reverse phase protein array)
Assay type: cell-based, human
Details: 1000nM
Method: RPPA analysis was performed by MD Anderson Cancer Center RPPA core facility.
Examination of the Molecular Signaling Events) and/or Downstream Pathways Responsible for the Migration and Invasion Effects Observed by Exemplary Compound Treatment. To pinpoint these observations to a molecular signaling event or specific downstream pathway, reverse phase protein array (RPPA) analysis was performed (Table 4).

For `CNC(=O)c1ccc(Nc2ncc(C(F)(F)F)c(NCc3nccnc3N(C)S(C)(=O)=O)n2)cc1` [Defactinib, defactinib, reference compound], the “rel. Protein level, 4E-BP1” value was 115.6%, the “rel. Protein level, 4E-BP1_pS65” value was 91.8% and the “rel. Protein level, 14-3-3-beta” value was 98.4%. For the same compound, the “rel. Protein level, 14-3-3-zeta” value was 102.9%, the “rel. Protein level, 53BP1” value was 111.6% and the “rel. Protein level, A-Raf” value was 108.3%. The “rel. Protein level, ACC1” value was 95.9%, the “rel. Protein level, ACC_pS79” value was 102.5% and the “rel. Protein level, ADAR1” value was 111.8%. For the same compound, the “rel. Protein level, AMPK-a2_pS345” value was 98.1%, the “rel. Protein level, AMPKa” value was 105.6% and the “rel. Protein level, AMPKa_pT172” value was 101.3%. For the same compound, the “rel. Protein level, AR” value was 103.1%, the “rel. Protein level, ARID1A” value was 100.8% and the “rel. Protein level, ATM” value was 93.9%. The “rel. Protein level, ATM_pS1981” value was 99.4%, the “rel. Protein level, ATR_pS428” value was 93.7% and the “rel. Protein level, Akt” value was 99.2%. The “rel. Protein level, Akt_pS473” value was 79.3%, the “rel. Protein level, Akt_pT308” value was 97.2% and the “rel. Protein level, Annexin-I” value was 96.1%. The “rel. Protein level, Annexin-VII” value was 107.8%, the “rel. Protein level, Atg3” value was 98.1% and the “rel. Protein level, Atg7” value was 99.5%. The “rel. Protein level, Aurora-B” value was 91.9%, the “rel. Protein level, Axl” value was 76.0% and the “rel. Protein level, B7-H4” value was 102.6%. For the same compound, the “rel. Protein level, B-Raf” value was 104.8%, the “rel. Protein level, B-Raf_pS445” value was 108.8% and the “rel. Protein level, BAP1” value was 83.5%. The “rel. Protein level, BRD4” value was 108.7%, the “rel. Protein level, Bad_pS112” value was 103.3% and the “rel. Protein level, Bak” value was 103.1%. For the same compound, the “rel. Protein level, Bax” value was 106.4%, the “rel. Protein level, Bc1-xL” value was 100.4% and the “rel. Protein level, Bc12” value was 112.9%. For the same compound, the “rel. Protein level, Beclin_l” value was 99.2%, the “rel. Protein level, BiP-GRP78” value was 103.7% and the “rel. Protein level, Bid” value was 109.2%. For the same compound, the “rel. Protein level, Bim” value was 105.6%, the “rel. Protein level, C-Raf” value was 96.5% and the “rel. Protein level, C-Raf_pS338” value was 98.1%. For the same compound, the “rel. Protein level, CD4” value was 103.7%, the “rel. Protein level, CD20” value was 96.8% and the “rel. Protein level, CD29” value was 101.9%. For the same compound, the “rel. Protein level, CD31” value was 100.7%, the “rel. Protein level, CD44” value was 100.5% and the “rel. Protein level, CD45” value was 117.4%. For the same compound, the “rel. Protein level, CD49b” value was 105.5%, the “rel. Protein level, CD134” value was 100.5% and the “rel. Protein level, CDK1_pT14” value was 84.4%. The “rel. Protein level, COG3” value was 105.5%, the “rel. Protein level, Caspase-3” value was 108.3% and the “rel. Protein level, Caspase-7-cleaved-” value was 107.0%. For the same compound, the “rel. Protein level, Caspase-8” value was 97.2%, the “rel. Protein level, Caveolin-1” value was 135.0% and the “rel. Protein level, Chk2” value was 97.0%. For the same compound, the “rel. Protein level, Chk2_pT68” value was 106.0%, the “rel. Protein level, Chkl” value was 84.1% and the “rel. Protein level, Chkl_pS296” value was 98.2%. For the same compound, the “rel. Protein level, Claudin-7” value was 97.3%, the “rel. Protein level, Collagen-VI” value was 102.5% and the “rel. Protein level, Connexin-43” value was 86.5%. The “rel. Protein level, Cox2” value was 144.9%, the “rel. Protein level, Cox-IV” value was 101.8% and the “rel. Protein level, Creb” value was 103.7%. For the same compound, the “rel. Protein level, Cyclin-B1” value was 86.8%, the “rel. Protein level, Cyclin-D1” value was 100.5% and the “rel. Protein level, Cyclin-D3” value was 97.2%. The “rel. Protein level, Cyclin-E1” value was 101.8%, the “rel. Protein level, Cyclophilin-F” value was 85.5% and the “rel. Protein level, D-a-Tubulin” value was 98.2%. The “rel. Protein level, DJ1” value was 105.3%, the “rel. Protein level, DM-Histone-H3” value was 106.7% and the “rel. Protein level, DM-K9-Histone-H3” value was 108.9%. For the same compound, the “rel. Protein level, DUSP4” value was 135.6%, the “rel. Protein level, E2F1” value was 98.4% and the “rel. Protein level, E-Cadherin” value was 122.5%. The “rel. Protein level, EGFR” value was 93.7%, the “rel. Protein level, EGFR_pY1173” value was 100.8% and the “rel. Protein level, EMA” value was 102.2%. The “rel. Protein level, ENY2” value was 95.1%, the “rel. Protein level, ER” value was 99.6% and the “rel. Protein level, ER-a_pS118” value was 98.5%. For the same compound, the “rel. Protein level, ERCC1” value was 85.6%, the “rel. Protein level, ERCC5” value was 110.3% and the “rel. Protein level, Elk1_pS383” value was 97.3%. The “rel. Protein level, Ets-1” value was 90.6%, the “rel. Protein level, FAK” value was 116.1% and the “rel. Protein level, FAK_pY397” value was 93.5%. The “rel. Protein level, FASN” value was 98.1%, the “rel. Protein level, FOXM1” value was 90.3% and the “rel. Protein level, Fibronectin” value was 89.9%. The “rel. Protein level, FoxO3a” value was 104.9%, the “rel. Protein level, FoxO3a_pS318_S321” value was 99.0% and the “rel. Protein level, G6PD” value was 102.3%. For the same compound, the “rel. Protein level, GAPDH” value was 104.0%, the “rel. Protein level, GATA3” value was 91.1% and the “rel. Protein level, GATA-6” value was 99.4%. The “rel. Protein level, GCLM” value was 97.0%, the “rel. Protein level, GCN5L2” value was 94.5% and the “rel. Protein level, GSK-3a-b” value was 101.2%. The “rel. Protein level, GSK-3a-b_pS21_S9” value was 98.8%, the “rel. Protein level, Gab2” value was 94.6% and the “rel. Protein level, Glutamate-D1-2” value was 100.6%. For the same compound, the “rel. Protein level, Glutaminase” value was 100.6%, the “rel. Protein level, Granzyme-B” value was 102.7% and the “rel. Protein level, Gys” value was 107.0%. For the same compound, the “rel. Protein level, Gys_pS641” value was 106.2%, the “rel. Protein level, H2AX_pS140” value was 101.9% and the “rel. Protein level, HER2” value was 91.7%. The “rel. Protein level, HER2_pY1248” value was 101.5%, the “rel. Protein level, HER3” value was 98.5% and the “rel. Protein level, HER3_pY1289” value was 98.2%. For the same compound, the “rel. Protein level, HES1” value was 97.2%, the “rel. Protein level, HLA-DR-DP-DQ-DX” value was 98.9% and the “rel. Protein level, HSP27” value was 101.4%. For the same compound, the “rel. Protein level, HSP27_pS82” value was 114.2%, the “rel. Protein level, HSP70” value was 103.2% and the “rel. Protein level, Heregulin” value was 109.2%. For the same compound, the “rel. Protein level, Hexokinase-II” value was 98.0%, the “rel. Protein level, Hif-l-alpha” value was 116.1% and the “rel. Protein level, Histone-H3” value was 123.3%. For the same compound, the “rel. Protein level, IGF1R_pY1135_Y1136” value was 98.7%, the “rel. Protein level, IGFBP2” value was 90.9% and the “rel. Protein level, IGFRb” value was 99.7%. The “rel. Protein level, INPP4b” value was 99.6%, the “rel. Protein level, IR-b” value was 110.0% and the “rel. Protein level, IRF-1” value was 104.1%. The “rel. Protein level, IRS1” value was 96.1%, the “rel. Protein level, JNK2” value was 111.4% and the “rel. Protein level, JNK_pT183_Y185” value was 99.7%. For the same compound, the “rel. Protein level, Jagged1” value was 107.3%, the “rel. Protein level, Jak2” value was 104.3% and the “rel. Protein level, LC3A-B” value was 102.5%. The “rel. Protein level, LDHA” value was 121.2%, the “rel. Protein level, LRP6_pS1490” value was 109.2% and the “rel. Protein level, Lck” value was 101.9%. The “rel. Protein level, MAPK_pT202-Y204” value was 98.0%, the “rel. Protein level, MCT4” value was 119.5% and the “rel. Protein level, MDM2_pS166” value was 92.3%. For the same compound, the “rel. Protein level, MEK1” value was 110.2%, the “rel. Protein level, MEK1_p_S217-S221” value was 98.0% and the “rel. Protein level, MERIT40_pS29” value was 91.1%. The “rel. Protein level, MIF” value was 118.6%, the “rel. Protein level, MIG6” value was 133.9% and the “rel. Protein level, MMP2” value was 103.4%. For the same compound, the “rel. Protein level, MMP14-[EP1264Y]” value was 138.0%, the “rel. Protein level, MMP-14” value was 139.1% and the “rel. Protein level, MSH6” value was 99.2%. The “rel. Protein level, MSI2” value was 100.7% and the “rel. Protein level, Mcl-1” value was 101.9%.
